Test results reported in PubChem BioAssay AID226 (DTP/NCI, 2004).
Where “and” joins values, the source holds several entries; their conditions need not be identical. Equal entries are not always repeated. Toxic doses and inconclusive results are not listed.

Tested on: B6C3F1 mice, intracerebral ependymoblastoma, median survival T/C
Assay: NCI In Vivo Anticancer Drug Screen. Data for tumor model Ependymoblastoma (intracerebral) in B6C3F1 mice
Conditions: endpoint: median survival time, higher = longer survival
Experimental: The antitumor activity of compounds was measured in mice bearing transplantable tumors. Survival or tumor size were measured and the results are expressed as the measurement made in the treated group (T) divided by the measurement made in the vehicle treated control group (C). The tumor model used in this assay is Ependymoblastoma (intracerebral) in B6C3F1 mice

[1] = dose: 4.0 mg/kg/injection, schedule: Q01DX005 (ip), vehicle: saline
[2] = dose: 8.0 mg/kg/injection, schedule: Q01DX005 (ip), vehicle: saline
[3] = dose: 16.0 mg/kg/injection, schedule: Q01DX005 (ip), vehicle: saline
[4] = dose: 32.0 mg/kg/injection, schedule: Q01DX005 (ip), vehicle: saline
[5] = dose: 6.25 mg/kg/injection, schedule: Q01DX005 (ip), vehicle: saline with Tween-80
[6] = dose: 2.0 mg/kg/injection, schedule: Q01DX005 (ip), vehicle: Klucel (hydroxypropylcellulose) (HPC)

`COC1C(O)C(C)OC(OC2C(Oc3cccc4c(O)c5c(=O)oc6ccc(C)c7c(=O)oc(c34)c5c67)OC(C)C(O)C2O)C1O` (stereo not given) was tested, and the T/C (dose: 1.0 mg/kg/injection, schedule: Q01DX005 (ip), vehicle: saline) was 105 % of control, the T/C (dose: 2.0 mg/kg/injection, schedule: Q01DX005 (ip), vehicle: saline with Tween-80) was 94 % of control and 105 % of control and the T/C (dose: 2.0 mg/kg/injection, schedule: Q01DX005 (ip), vehicle: saline) was 98 % of control. For the same compound, the T/C (dose: 4.0 mg/kg/injection, schedule: Q01DX005 (ip), vehicle: saline with Tween-80) was 99 % of control and 102 % of control, the T/C [1] was 96 % of control and the T/C (dose: 8.0 mg/kg/injection, schedule: Q01DX005 (ip), vehicle: saline with Tween-80) was 102 % of control and 104 % of control. The T/C [2] was 101 % of control, the T/C (dose: 16.0 mg/kg/injection, schedule: Q01DX005 (ip), vehicle: saline with Tween-80) was 100 % of control and 105 % of control and the T/C [3] was 93 % of control. The T/C (dose: 32.0 mg/kg/injection, schedule: Q01DX005 (ip), vehicle: saline with Tween-80) was 106 % of control and 89 % of control, the T/C [4] was 98 % of control and the T/C (dose: 64.0 mg/kg/injection, schedule: Q01DX005 (ip), vehicle: saline with Tween-80) was 102 % of control and 108 % of control. For the same compound, the T/C (dose: 64.0 mg/kg/injection, schedule: Q01DX005 (ip), vehicle: saline) was 103 % of control, the T/C (dose: 128.0 mg/kg/injection, schedule: Q01DX005 (ip), vehicle: saline with Tween-80) was 106 % of control and 111 % of control and the T/C (dose: 128.0 mg/kg/injection, schedule: Q01DX005 (ip), vehicle: saline) was 98 % of control.

In the case of `CO[C@H]1C[C@@H]2CC[C@@H](C)[C@@](O)(O2)C(=O)C(=O)N2CCCC[C@H]2C(=O)O[C@H]([C@H](C)C[C@@H]2CC[C@@H](O)[C@H](OC)C2)CC(=O)[C@H](C)C=C(C)[C@@H](O)[C@@H](OC)C(=O)[C@H](C)C[C@H](C)/C=C/C=C/C=C1C`, the T/C (dose: 3.12 mg/kg/injection, schedule: Q01DX009 (ip), vehicle: clinical formulation) is reported as 118 % of control, the T/C [5] is reported as 113 % of control and the T/C (dose: 12.5 mg/kg/injection, schedule: Q01DX009 (ip), vehicle: gum acacia) is reported as 202 % of control. The T/C (dose: 25.0 mg/kg/injection, schedule: Q01DX005 (oral), vehicle: saline with Tween-80) was 106 % of control, the T/C (dose: 25.0 mg/kg/injection, schedule: Q01DX009 (ip), vehicle: clinical formulation) was 156 % of control and the T/C (dose: 25.0 mg/kg/injection, schedule: Q01DX009 (ip), vehicle: gum acacia) was 198 % of control. The T/C (dose: 50.0 mg/kg/injection, schedule: Q01DX005 (oral), vehicle: saline with Tween-80) was 107 % of control and 108 % of control, the T/C (dose: 50.0 mg/kg/injection, schedule: Q01DX009 (ip), vehicle: clinical formulation) was 152 % of control and 156 % of control and the T/C (dose: 50.0 mg/kg/injection, schedule: Q01DX009 (ip), vehicle: gum acacia) was 177 % of control. For the same compound, the T/C (dose: 100.0 mg/kg/injection, schedule: Q01DX005 (oral), vehicle: saline with Tween-80) was 100 % of control and 107 % of control, the T/C (dose: 100.0 mg/kg/injection, schedule: Q01DX009 (ip), vehicle: clinical formulation) was 162 % of control and 167 % of control and the T/C (dose: 100.0 mg/kg/injection, schedule: Q01DX009 (ip), vehicle: gum acacia) was 185 % of control. For the same compound, the T/C (dose: 200.0 mg/kg/injection, schedule: Q01DX005 (ip), vehicle: saline with Tween-80) was 113 % of control and 193 % of control and 207 % of control, the T/C (dose: 200.0 mg/kg/injection, schedule: Q01DX005 (oral), vehicle: saline with Tween-80) was 103 % of control and 108 % of control and the T/C (dose: 400.0 mg/kg/injection, schedule: Q01DX005 (oral), vehicle: saline with Tween-80) was 108 % of control and 119 % of control. For the same compound, the T/C (dose: 400.0 mg/kg/injection, schedule: Q01DX009 (ip), vehicle: gum acacia) was 198 % of control and the T/C (dose: 800.0 mg/kg/injection, schedule: Q01DX005 (oral), vehicle: saline with Tween-80) was 124 % of control.

With `COc1ccc2c(c1OC(C)=O)-c1cc(O)cc3c1C(C2)N(C(=O)CN(CCCl)CCCl)CC3` (stereo not given) the T/C (dose: 3.12 mg/kg/injection, schedule: Q01DX005 (ip), vehicle: saline with Tween-80) was 96 % of control, the T/C [5] was 102 % of control and the T/C (dose: 12.5 mg/kg/injection, schedule: Q01DX005 (ip), vehicle: saline with Tween-80) was 105 % of control.

`O=CC(NC(=O)N(CCCl)N=O)C(O)C(O)C(O)CO` (stereo not given) was tested, and the T/C (dose: 0.12 mg/kg/injection, schedule: Q01DX005 (ip), vehicle: saline) was 97 % of control and 99 % of control and 108 % of control, the T/C (dose: 0.13 mg/kg/injection, schedule: Q01DX005 (ip), vehicle: saline) was 91 % of control and 93 % of control and the T/C (dose: 1.0 mg/kg/injection, schedule: Q01DX001 (ip), vehicle: Klucel (hydroxypropylcellulose) (HPC)) was 93 % of control and 104 % of control and 107 % of control. For the same compound, the T/C (dose: 1.0 mg/kg/injection, schedule: Q01DX005 (ip), vehicle: Klucel (hydroxypropylcellulose) (HPC)) was 108 % of control, the T/C (dose: 2.0 mg/kg/injection, schedule: Q01DX001 (ip), vehicle: Klucel (hydroxypropylcellulose) (HPC)) was 99 % of control and 103 % of control and 108 % of control and the T/C [6] was 119 % of control. For the same compound, the T/C (dose: 3.13 mg/kg/injection, schedule: Q01DX001 (ip), vehicle: saline) was 115 % of control, the T/C (dose: 4.0 mg/kg/injection, schedule: Q01DX001 (ip), vehicle: Klucel (hydroxypropylcellulose) (HPC)) was 100 % of control and 107 % of control and 108 % of control and the T/C (dose: 4.0 mg/kg/injection, schedule: Q01DX009 (ip), vehicle: saline) was 195 % of control. For the same compound, the T/C (dose: 6.25 mg/kg/injection, schedule: Q01DX001 (ip), vehicle: saline) was 122 % of control, the T/C (dose: 8.0 mg/kg/injection, schedule: Q01DX001 (ip), vehicle: Klucel (hydroxypropylcellulose) (HPC)) was 103 % of control and 110 % of control and 113 % of control and the T/C (dose: 16.0 mg/kg/injection, schedule: Q01DX001 (ip), vehicle: Klucel (hydroxypropylcellulose) (HPC)) was 111 % of control and 115 % of control and 119 % of control. The T/C (dose: 25.0 mg/kg/injection, schedule: Q01DX001 (ip), vehicle: saline) was 157 % of control.

`O=NN(CCF)C(=O)NCCO` was tested, and the T/C (dose: 5.18 mg/kg/injection, schedule: Q01DX005 (ip), vehicle: Klucel (hydroxypropylcellulose) (HPC)) was 189 % of control, the T/C (dose: 8.64 mg/kg/injection, schedule: Q01DX005 (ip), vehicle: Klucel (hydroxypropylcellulose) (HPC)) was 357 % of control and the T/C (dose: 13.0 mg/kg/injection, schedule: Q01DX001 (ip), vehicle: saline) was 115 % of control. The T/C (dose: 14.4 mg/kg/injection, schedule: Q01DX005 (ip), vehicle: Klucel (hydroxypropylcellulose) (HPC)) was 357 % of control, the T/C (dose: 21.6 mg/kg/injection, schedule: Q01DX001 (ip), vehicle: saline) was 181 % of control and the T/C (dose: 24.0 mg/kg/injection, schedule: Q01DX005 (ip), vehicle: Klucel (hydroxypropylcellulose) (HPC)) was 357 % of control. The T/C (dose: 36.0 mg/kg/injection, schedule: Q01DX001 (ip), vehicle: saline) was 363 % of control and the T/C (dose: 60.0 mg/kg/injection, schedule: Q01DX001 (ip), vehicle: saline) was 363 % of control.

With `O=P1(NCCCl)OCCCN1CCCl` (stereo not given) the T/C (dose: 25.0 mg/kg/injection, schedule: Q01DX001 (ip), vehicle: water) was 101 % of control, the T/C (dose: 40.0 mg/kg/injection, schedule: Q01DX001 (ip), vehicle: saline) was 102 % of control and the T/C (dose: 50.0 mg/kg/injection, schedule: Q01DX001 (ip), vehicle: water) was 104 % of control and 105 % of control. The T/C (dose: 80.0 mg/kg/injection, schedule: Q01DX001 (ip), vehicle: saline) was 101 % of control, the T/C (dose: 100.0 mg/kg/injection, schedule: Q01DX001 (ip), vehicle: water) was 101 % of control and 113 % of control and the T/C (dose: 160.0 mg/kg/injection, schedule: Q01DX001 (ip), vehicle: saline) was 102 % of control. For the same compound, the T/C (dose: 200.0 mg/kg/injection, schedule: Q01DX001 (ip), vehicle: water) was 114 % of control and 124 % of control, the T/C (dose: 320.0 mg/kg/injection, schedule: Q01DX001 (ip), vehicle: saline) was 105 % of control and the T/C (dose: 400.0 mg/kg/injection, schedule: Q01DX001 (ip), vehicle: water) was 119 % of control. The T/C (dose: 640.0 mg/kg/injection, schedule: Q01DX001 (ip), vehicle: saline) was 118 % of control.

With `COc1cc(NC(=O)CN(CCCl)CCCl)cc(OC)c1OC` the T/C (dose: 25.0 mg/kg/injection, schedule: Q01DX009 (ip), vehicle: saline with Tween-80) was 113 % of control and the T/C (dose: 50.0 mg/kg/injection, schedule: Q01DX009 (ip), vehicle: saline with Tween-80) was 113 % of control.

For `CCC1=C(c2ccc(OC)cc2)CCC(C(=O)O)C1C` (stereo not given), the T/C [1] was 102 % of control, the T/C [2] was 102 % of control and the T/C [3] was 102 % of control. The T/C [4] was 103 % of control.

In the case of `S=P(N1CC1)(N1CC1)N1CC1`, the T/C [2] is reported as 169 % of control.

In the case of `COC12C(COC(N)=O)C3=C(C(=O)C(C)=C(N)C3=O)N1CC1C2N1C` (stereo not given), the T/C [6] is reported as 105 % of control and 110 % of control and the T/C (dose: 4.0 mg/kg/injection, schedule: Q01DX005 (ip), vehicle: Klucel (hydroxypropylcellulose) (HPC)) is reported as 112 % of control and 114 % of control.
